# From ChEMBL document CHEMBL1153781, “Prediction of volume of distribution values in human using immobilized artificial membrane partitioning coefficients, the fraction of compound ionized and plasma protein binding data” (Eur J Med Chem, 2009)
# Assays:
# [1] = clinical; conditions: human, in vivo
# [2] = system: Plasma; conditions: human
Compound,Vd [1] [L/kg],fu [2]
CC(C(=O)O)c1ccc(-c2ccccc2)c(F)c1 (stereo not given) [FLURBIPROFEN],0.12,0.01
CCC[C@@H]1C[C@@H](C(=O)N[C@@H]([C@H]2O[C@H](SC)[C@H](O)[C@@H](O)[C@H]2O)[C@@H](C)O)N(C)C1 [LINCOMYCIN],1.3,0.28
Cc1c(OCC(F)(F)F)ccnc1C[S+]([O-])c1nc2ccccc2[nH]1 (stereo not given) [LANSOPRAZOLE],0.35,0.03
CCC1(CCC(C)C)C(=O)NC(=O)NC1=O [AMOBARBITAL],1.05,
CN(C)C(=N)N=C(N)N [METFORMIN],2.45,
CC(=O)Nc1ccc(O)cc1 [ACETAMINOPHEN],,1
NC(N)=Nc1nc(CSCCC(N)=NS(N)(=O)=O)cs1 [FAMOTIDINE],,0.83
Cn1c(=O)c2c(ncn2CC(O)CO)n(C)c1=O (stereo not given) [DYPHYLLINE],0.8,0.6
O=C(O)c1ccccc1O [SALICYLIC ACID],0.17,0.05
CCC1(c2ccccc2)C(=O)NC(=O)NC1=O [PHENOBARBITAL],0.63,0.5
NS(=O)(=O)c1cc2c(cc1Cl)NCNS2(=O)=O [HYDROCHLOROTHIAZIDE],0.83,0.6
CC(CN1c2ccccc2Sc2ccccc21)N(C)C (stereo not given) [PROMETHAZINE],,0.07
CCCCNC(=O)NS(=O)(=O)c1ccc(C)cc1 [TOLBUTAMIDE],0.14,
C[C@H]1O[C@@H](O[C@H]2[C@@H](O)C[C@H](O[C@H]3[C@@H](O)C[C@H](O[C@H]4CC[C@@]5(C)[C@H](CC[C@@H]6[C@@H]5C[C@@H](O)[C@]5(C)[C@@H](C7=CC(=O)OC7)CC[C@]65O)C4)O[C@@H]3C)O[C@@H]2C)C[C@H](O)[C@@H]1O [DIGOXIN],3.12,
NC(=O)c1cnccn1 [PYRAZINAMIDE],0.7,0.9
COc1ccc2c(c1)c(CC(=O)O)c(C)n2C(=O)c1ccc(Cl)cc1 [INDOMETHACIN],0.1,0.1
Cc1cnc(NC(=O)C2=C(O)c3ccccc3S(=O)(=O)N2C)s1 [MELOXICAM],,0.006
C[C@]12C=CC(=O)C=C1CC[C@@H]1[C@@H]2C(=O)C[C@@]2(C)[C@H]1CC[C@]2(O)C(=O)CO [PREDNISONE],,0.25
CN1C(C(=O)Nc2ccccn2)=C(O)c2ccccc2S1(=O)=O [PIROXICAM],0.14,0.01
O=C(O)CCCc1ccc(N(CCCl)CCCl)cc1 [CHLORAMBUCIL],0.29,

Compound,Vd [1] [L/kg],fu [2]
CN1C(=O)CN=C(c2ccccc2)c2cc(Cl)ccc21 [DIAZEPAM],,0.02
CCCN1CCCC[C@H]1C(=O)Nc1c(C)cccc1C [ROPIVACAINE],0.55,0.06
CCS(=O)(=O)CCn1c([N+](=O)[O-])cnc1C [TINIDAZOLE],0.7,0.88
NNC(=O)c1ccncc1 [ISONIAZID],0.67,1
C[C@]12CCC(=O)C=C1CC[C@@H]1[C@@H]2[C@@H](O)C[C@@]2(C)[C@H]1CC[C@]2(O)C(=O)CO [HYDROCORTISONE],,0.09
COC1=CC(=O)C[C@@H](C)[C@]12Oc1c(Cl)c(OC)cc(OC)c1C2=O [GRISEOFULVIN],1.5,0.16
C[C@H]1COc2c(N3CCN(C)CC3)c(F)cc3c(=O)c(C(=O)O)cn1c23.C[C@H]1COc2c(N3CCN(C)CC3)c(F)cc3c(=O)c(C(=O)O)cn1c23.O [LEVOFLOXACIN],1.36,0.69
C[C@]12C=CC(=O)C=C1CC[C@@H]1[C@@H]2[C@@H](O)C[C@@]2(C)[C@H]1CC[C@]2(O)C(=O)CO [PREDNISOLONE],,0.075
NC(=O)N1c2ccccc2C=Cc2ccccc21 [CARBAMAZEPINE],1.4,0.25
CCN1CCCC1CNC(=O)c1cc(S(N)(=O)=O)ccc1OC (stereo not given) [SULPIRIDE],2.5,0.6
COc1ccc2cc([C@H](C)C(=O)O)ccc2c1 [NAPROXEN],,0.01
CC(=O)[C@@]1(O)CC[C@H]2[C@@H]3C[C@H](C)C4=CC(=O)CC[C@]4(C)[C@H]3CC[C@@]21C,4.66,0.1
CC(=O)CC(c1ccccc1)c1c(O)c2ccccc2oc1=O (stereo not given) [WARFARIN],0.14,0.01
CN1CCc2cccc3c2[C@H]1Cc1ccc(O)c(O)c1-3 [APOMORPHINE],2,0.5
CN[C@@H](C)[C@@H](O)c1ccccc1 [PSEUDOEPHEDRINE],2.84,1
CN(C)CCC=C1c2ccccc2COc2ccccc21 [DOXEPIN],11.7,0.17
O=C1NC(=O)C(c2ccccc2)(c2ccccc2)N1 [PHENYTOIN],0.64,0.1
COc1ccc(Cl)cc1C(=O)NCCc1ccc(S(=O)(=O)NC(=O)NC2CCCCC2)cc1 [GLYBURIDE],0.14,0.01
CN1CC[C@]23c4c5ccc(O)c4O[C@H]2[C@@H](O)C=C[C@H]3[C@H]1C5 [MORPHINE],,0.61
Clc1cccc(Cl)c1N=C1NCCN1 [CLONIDINE],,0.8

Compound,Vd [1] [L/kg],fu [2]
CCCNCC(O)COc1ccccc1C(=O)CCc1ccccc1 (stereo not given) [PROPAFENONE],,0.05
C[C@]12C=CC(=O)C=C1CC[C@H]1[C@@H]3C[C@@H](O)[C@](O)(C(=O)CO)[C@@]3(C)C[C@H](O)[C@@]12F [TRIAMCINOLONE],1.76,0.32
Cc1cc(=O)n(-c2ccccc2)n1C [ANTIPYRINE],,0.87
CC(C)NCC(O)COc1cccc2ccccc12 (stereo not given) [PROPRANOLOL],,0.1
COC(=O)C1=C(C)NC(C)=C(C(=O)OCCN(C)Cc2ccccc2)C1c1cccc([N+](=O)[O-])c1 (stereo not given) [NICARDIPINE],0.98,0.05
COc1cc(Cc2cnc(N)nc2N)cc(OC)c1OC [TRIMETHOPRIM],,0.63
O=C(O)Cc1ccccc1Nc1c(Cl)cccc1Cl [DICLOFENAC],,0.01
CCC(C)(C)C(=O)O[C@H]1C[C@@H](C)C=C2C=C[C@H](C)[C@H](CC[C@@H]3C[C@@H](O)CC(=O)O3)[C@H]21 [SIMVASTATIN],0.98,
CC(C)NCC(O)COc1ccc(CC(N)=O)cc1 (stereo not given) [ATENOLOL],,0.91
O=C(N[C@H](CO)[C@H](O)c1ccc([N+](=O)[O-])cc1)C(Cl)Cl [CHLORAMPHENICOL],,0.47
CN(C)CCC(c1ccc(Cl)cc1)c1ccccn1 (stereo not given) [CHLORPHENIRAMINE],,0.3
CC(C)(C)NCC(O)c1ccc(O)c(CO)c1 (stereo not given) [ALBUTEROL],,0.93
C[C@]12CC[C@@H]3c4ccc(O)cc4CC[C@H]3[C@@H]1CC[C@@H]2O [ESTRADIOL],,0.015
COc1ccc2c3c1O[C@H]1[C@@H](O)C=C[C@H]4[C@@H](C2)N(C)CC[C@@]341 [CODEINE],,0.93
CN/C(=N/CCSCc1nc[nH]c1C)NC#N [CIMETIDINE],,0.81
CC(C(=O)O)c1cccc(C(=O)c2ccccc2)c1 (stereo not given) [KETOPROFEN],0.15,
CC1(C)S[C@@H]2[C@H](NC(=O)Cc3ccccc3)C(=O)N2[C@H]1C(=O)O [PENICILLIN G],,0.425
NS(=O)(=O)c1cc(C(=O)O)c(NCc2ccco2)cc1Cl [FUROSEMIDE],,0.03
CN(C)CCC=C1c2ccccc2CCc2ccccc21 [AMITRIPTYLINE],,0.06
